From PMC10178848, “Modulating fast skeletal muscle contraction protects skeletal muscle in animal models of Duchenne muscular dystrophy” (The Journal of Clinical Investigation, 2023)

Test system: mdx mouse EDL muscle
Assay: Phosphoprotein array analysis (Cell Signaling Phospho Antibody Array)
Details: phospho/total, T vs C
Experimental: mdx mouse EDL muscle was prepared for ex vivo analysis as described (n = 5). Muscles were incubated for 1 hour with DMSO or EDG-5506 (5 μM) and then flash frozen in liquid nitrogen. Tissue preparation and analysis were performed as recommended by the manufacturer (Cell Signaling Phospho Antibody Array, Full Moon Biosystems).

**Q.** How did the “Ratio (T/C): Integrin beta-3 (Phospho-Tyr773) to total Integrin beta-3 (Ab-773)” value turn out when `O=c1ccc(-c2cnc(OCC(F)(F)F)nc2)nn1Cc1cncc(F)c1` [EDG-5506] was run?
**A.** 0.8566

**Q.** And the “Ratio (T/C): Interferon-gamma receptor alpha (Phospho-Tyr457) to total Interferon-alpha/beta receptor alpha chain (Ab-466)” value?
**A.** 0.992

**Q.** And the “Ratio (T/C): JAK2 (Phospho-Tyr221) to total JAK2 (Ab-1007)” value?
**A.** 0.5849

**Q.** What about the “Ratio (T/C): JunB (Phospho-Ser259) to total JunB (Ab-259)” value of the same compound?
**A.** 0.7783

**Q.** And the “Ratio (T/C): LKB1 (Phospho-Thr189) to total LKB1 (Ab-334)” value?
**A.** 1.099

**Q.** And the “Ratio (T/C): LYN (Phospho-Tyr507) to total LYN (Ab-507)” value?
**A.** 1.819

**Q.** And the “Ratio (T/C): Lamin A/C (Phospho-Ser392) to total Lamin A/C (Ab-392)” value?
**A.** 0.4365

**Q.** What about the “Ratio (T/C): MDM2 (Phospho-Ser166) to total MDM2 (Ab-166)” value of the same compound?
**A.** 0.7195

**Q.** What about the “Ratio (T/C): MEK1 (Phospho-Ser217) to total MEK1 (Ab-291)” value of the same compound?
**A.** 0.8093

**Q.** And the “Ratio (T/C): MEK1 (Phospho-Ser221) to total MEK1 (Ab-291)” value?
**A.** 1.481

**Q.** And the “Ratio (T/C): MITF (Phospho-Ser73) to total MITF (Ab-73)” value?
**A.** 0.8065

**Q.** What about the “Ratio (T/C): MSK1 (Phospho-Ser376) to total MSK1 (Ab-360)” value of the same compound?
**A.** 1.21

**Q.** And the “Ratio (T/C): Myc (Phospho-Ser62) to total Myc (Ab-58)” value?
**A.** 0.9423

**Q.** And the “Ratio (T/C): NFkB-p65 (Phospho-Ser311) to total NFkB-p65 (Ab-529)” value?
**A.** 0.8783

**Q.** What about the “Ratio (T/C): NFkB-p65 (Phospho-Ser529) to total NFkB-p65 (Ab-529)” value of the same compound?
**A.** 0.8263

**Q.** And the “Ratio (T/C): NFkB-p100/p52 (Phospho-Ser865) to total NFkB-p100/p52 (Ab-865)” value?
**A.** 1.159

**Q.** What about the “Ratio (T/C): NFkB-p105/p50 (Phospho-Ser337) to total NFkB-p105/p50 (Ab-927)” value of the same compound?
**A.** 1.219

**Q.** What about the “Ratio (T/C): P38 MAPK (Phospho-Thr180/Tyr182) to total P38 MAPK (Ab-182)” value of the same compound?
**A.** 0.2071

**Q.** And the “Ratio (T/C): P70S6K (Phospho-Ser424) to total P70S6K (Ab-229)” value?
**A.** 0.7495

**Q.** And the “Ratio (T/C): P70S6K (Phospho-Thr421) to total P70S6K (Ab-229)” value?
**A.** 1.055

**Q.** What about the “Ratio (T/C): P73 (Phospho-Tyr99) to total P73 (Ab-99)” value of the same compound?
**A.** 1.0107

**Q.** What about the “Ratio (T/C): P90RSK (Phospho-Thr359/Ser363) to total P90RSK (Ab-359/363)” value of the same compound?
**A.** 0.8912

**Q.** What about the “Ratio (T/C): PDK1 (Phospho-Ser241) to total PDK1 (Ab-241)” value of the same compound?
**A.** 0.9138

**Q.** And the “Ratio (T/C): PLCG1 (Phospho-Tyr783) to total PLCG1 (Ab-783)” value?
**A.** 1.902

**Q.** What about the “Ratio (T/C): PLK1 (Phospho-Thr210) to total PLK1 (Ab-210)” value of the same compound?
**A.** 0.3997

**Q.** And the “Ratio (T/C): PP1 alpha (Phospho-Thr320) to total PP1 alpha (Ab-320)” value?
**A.** 0.867

**Q.** And the “Ratio (T/C): PP2A-alpha (Phospho-Tyr307) to total PP2A-alpha (Ab-307)” value?
**A.** 0.7589

**Q.** What about the “Ratio (T/C): PPAR-gamma (Phospho-Ser112) to total PPAR-gamma (Ab-112)” value of the same compound?
**A.** 0.8451

**Q.** What about the “Ratio (T/C): PTEN (Phospho-Ser380/Thr382/Thr383) to total PTEN (Ab-380)” value of the same compound?
**A.** 0.6925

**Q.** What about the “Ratio (T/C): RSK1/2/3/4 (Phospho-Ser221/227/218/232) to total RSK1/2/3/4 (Ab-221/227/218/232)” value of the same compound?
**A.** 1.05

**Q.** What about the “Ratio (T/C): Raf1 (Phospho-Ser259) to total Raf1 (Ab-43)” value of the same compound?
**A.** 0.9472

**Q.** And the “Ratio (T/C): Rb (Phospho-Ser608) to total Rb (Ab-807)” value?
**A.** 0.5194

**Q.** And the “Ratio (T/C): Rb (Phospho-Ser807) to total Rb (Ab-807)” value?
**A.** 0.4329

**Q.** And the “Ratio (T/C): RelB (Phospho-Ser552) to total RelB (Ab-552)” value?
**A.** 0.7768

**Q.** And the “Ratio (T/C): SHP-2 (Phospho-Tyr542) to total SHP-2 (Ab-542)” value?
**A.** 0.9242

**Q.** And the “Ratio (T/C): SRF (Phospho-Ser99) to total SRF (Ab-99)” value?
**A.** 0.6381

**Q.** What about the “Ratio (T/C): STAT2 (Phospho-Tyr690) to total STAT2 (Ab-690)” value of the same compound?
**A.** 1.1086

**Q.** And the “Ratio (T/C): STAT3 (Phospho-Tyr705) to total STAT3 (Ab-705)” value?
**A.** 0.8721

**Q.** What about the “Ratio (T/C): STAT5B (Phospho-Ser731) to total STAT5B (Ab-731)” value of the same compound?
**A.** 1.008

**Q.** And the “Ratio (T/C): STAT6 (Phospho-Thr645) to total STAT6 (Ab-645)” value?
**A.** 0.7953

**Q.** What about the “Ratio (T/C): SYK (Phospho-Tyr348) to total SYK (Ab-525)” value of the same compound?
**A.** 0.9191

**Q.** What about the “Ratio (T/C): Shc (Phospho-Tyr349) to total Shc (Ab-349)” value of the same compound?
**A.** 1.943

**Q.** What about the “Ratio (T/C): Smad1 (Phospho-Ser187) to total Smad1 (Ab-465)” value of the same compound?
**A.** 1.9576

**Q.** And the “Ratio (T/C): Smad2 (Phospho-Ser467) to total Smad2 (Ab-255)” value?
**A.** 0.3873

**Q.** What about the “Ratio (T/C): Smad2/3 (Phospho-Thr8) to total Smad2 (Ab-255)” value of the same compound?
**A.** 0.779

**Q.** What about the “Ratio (T/C): Smad3 (Phospho-Ser213) to total Smad3 (Ab-425)” value of the same compound?
**A.** 2.4313

**Q.** What about the “Ratio (T/C): Src (Phospho-Tyr418) to total Src (Ab-418)” value of the same compound?
**A.** 0.4536

**Q.** And the “Ratio (T/C): Synuclein alpha (Phospho-Tyr136) to total Synuclein alpha (Ab-125)” value?
**A.** 1.009

**Q.** What about the “Ratio (T/C): Tau (Phospho-Ser235) to total Tau (Ab-235)” value of the same compound?
**A.** 0.4913

**Q.** And the “Ratio (T/C): Tau (Phospho-Ser396) to total Tau (Ab-235)” value?
**A.** 0.4515

**Q.** What about the “Ratio (T/C): Trk B (Phospho-Tyr515) to total Trk B (Ab-515)” value of the same compound?
**A.** 0.8791

**Q.** And the “Ratio (T/C): VEGFR2 (Phospho-Tyr1175) to total VEGFR2 (Ab-1214)” value?
**A.** 0.7882

**Q.** And the “Ratio (T/C): VEGFR2 (Phospho-Tyr1214) to total VEGFR2 (Ab-1214)” value?
**A.** 1.1348

**Q.** And the “Ratio (T/C): Zap-70 (Phospho-Tyr319) to total Zap-70 (Ab-319)” value?
**A.** 0.9346

**Q.** And the “Ratio (T/C): c-Jun (Phospho-Ser73) to total c-Jun (Ab-243)” value?
**A.** 0.8772

**Q.** What about the “Ratio (T/C): eEF2K (Phospho-Ser366) to total eEF2K (Ab-366)” value of the same compound?
**A.** 0.5517

**Q.** And the “Ratio (T/C): eIF2A (Phospho-Ser51) to total eIF2A (Ab-51)” value?
**A.** 1.082

**Q.** What about the “Ratio (T/C): eNOS (Phospho-Ser615) to total eNOS (Ab-1179)” value of the same compound?
**A.** 1.215

**Q.** What about the “Ratio (T/C): mTOR (Phospho-Ser2481) to total mTOR (Ab-2481)” value of the same compound?
**A.** 1.125

**Q.** And the “Ratio (T/C): p44/42 MAP Kinase (Phospho-Tyr204) to total p44/42 MAP Kinase (Ab-202)” value?
**A.** 0.9379

**Q.** What about the “Ratio (T/C): p53 (Phospho-Ser9) to total p53 (Ab-315)” value of the same compound?
**A.** 0.8012

**Q.** What about the “Ratio (T/C): p53 (Phospho-Ser15) to total p53 (Ab-315)” value of the same compound?
**A.** 0.1195

**Q.** What about the “Ratio (T/C): p53 (Phospho-Ser315) to total p53 (Ab-315)” value of the same compound?
**A.** 0.641
